In PMC9172056 (Journal of medicinal chemistry, 2022):
Where two headings read alike, the source gives them in different places.

Key:
CRFK cells = settings: cat
SARS-CoV-2 replicon [1] = settings: read-out: EC50 SARS-CoV-2 replicon assay, previously reported; cited from earlier work
SARS-CoV-2 replicon [2] = type: cell-based; settings: read-out: EC50 SARS-CoV-2 replicon assay
in vitro = settings: cat
[3] = test system: entry of SARS-CoV-2 (pseudotyped lentivirus with S); assay: organism not typed; type: cell-based; settings: read-out: EC50 inhibition of SARS-CoV-2 entry
SARS-CoV-2 3CL^pro = SARS-CoV-2 3CL^pro (Severe acute respiratory syndrome coronavirus 2, UniProt P0DTD1); assay: biochemical; type: biochemical
MERS-CoV 3CL^pro = MERS-CoV 3CL^pro (Middle East respiratory syndrome-related coronavirus, UniProt K9N7C7); assay: biochemical
Sequence of MERS-CoV 3CL^pro (K9N7C7 3248-3553 limits assumed): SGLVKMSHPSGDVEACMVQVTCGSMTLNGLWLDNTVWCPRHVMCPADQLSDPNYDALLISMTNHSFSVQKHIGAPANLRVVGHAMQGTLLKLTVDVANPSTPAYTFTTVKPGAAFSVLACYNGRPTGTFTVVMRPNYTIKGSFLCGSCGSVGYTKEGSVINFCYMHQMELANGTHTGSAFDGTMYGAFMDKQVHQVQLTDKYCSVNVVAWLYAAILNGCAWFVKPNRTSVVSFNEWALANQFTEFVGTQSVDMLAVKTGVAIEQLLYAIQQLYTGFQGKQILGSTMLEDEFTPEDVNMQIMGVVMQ

Compound	CC50 (in vitro) [nM]	EC50 [3] [nM]	IC50 (MERS-CoV 3CL^pro) [nM]	IC50 (SARS-CoV-2 3CL^pro) [nM]	also measured
GC376					CC50 (CRFK cells): > 100000 nM; EC50 (SARS-CoV-2 replicon [1]): 20 nM; EC50 (SARS-CoV-2 replicon [2]): 27 ± 10 nM
CC(C)C[C@H](NC(=O)OCC1CN(C(=O)OC(C)(C)C)C1)C(=O)N[C@H](C=O)C[C@H]1CCNC1=O [Compound 14b, tert-Butyl 3-(((((S)-4-methyl-1-oxo-1-(((S)-1-oxo-3-((R)-2-oxopyrrolidin-3-yl)propan-2-yl)amino)pentan-2-yl)carbamoyl)oxy)methyl)azetidine-1-carboxylate]	> 100000	2000 to 10000			fold better IC50 than the 12b/12c pair (SARS-CoV-2 3CL^pro): > 6 fold; fold more potent than 17b (SARS-CoV-2 3CL^pro): 12 fold
CC(C)C[C@H](NC(=O)OC1CC2(CCN(C(=O)OC(C)(C)C)CC2)C1)C(=O)N[C@H](C=O)C[C@H]1CCNC1=O [Compound 7b, tert-Butyl 2-((((S)-4-methyl-1-oxo-1-(((S)-1-oxo-3-((R)-2-oxopyrrolidin-3-yl)propan-2-yl)amino)pentan-2-yl)carbamoyl)oxy)-7-azaspiro[3.5]nonane-7-carboxylate]	> 100000	2000 to 10000			fold lower IC50 than compound 1b (SARS-CoV-2 3CL^pro): > 9 fold
CC(C)C[C@H](NC(=O)OCC1CN(S(C)(=O)=O)C1)C(=O)N[C@@H](C[C@H]1CCNC1=O)C(O)S(=O)(=O)O (stereo partly drawn) [Compound 17c, Sodium (2S)-1-hydroxy-2-((S)-4-methyl-2-((((1-(methylsulfonyl)azetidin-3-yl)methoxy)carbonyl)amino)pentanamido)-3-((R)-2-oxopyrrolidin-3-yl)propane-1-sulfonate]	> 100000		1350 ± 210	4050 ± 780	
CC(C)C[C@H](NC(=O)OC1CN(C(=O)OC(C)(C)C)C1)C(=O)N[C@@H](C[C@H]1CCNC1=O)C(O)S(=O)(=O)O (stereo partly drawn) [Compound 12c, Sodium (2S)-2-((S)-2-((((1-(tert-butoxycarbonyl)azetidin-3-yl)oxy)carbonyl)amino)-4-methylpentanamido)-1-hydroxy-3-((R)-2-oxopyrrolidin-3-yl)propane-1-sulfonate]	> 100000		2550 ± 920	3050 ± 350	
CC(C)C[C@H](NC(=O)OCC1CN(C(=O)OC(C)(C)C)C1)C(=O)N[C@@H](C[C@H]1CCNC1=O)C(O)S(=O)(=O)[O-].[Na+] (stereo partly drawn) [Compound 14c, Sodium (2S)-2-((S)-2-((((1-(tert-butoxycarbonyl)azetidin-3-yl)methoxy)carbonyl)amino)-4-methylpentanamido)-1-hydroxy-3-((R)-2-oxopyrrolidin-3-yl)propane-1-sulfonate]	> 100000	2000 to 10000	440 ± 60	500 ± 140	fold better IC50 than the 12b/12c pair (SARS-CoV-2 3CL^pro): > 6 fold
CC(C)C[C@H](NC(=O)OC1CC2(CCN(C(=O)OC(C)(C)C)C2)C1)C(=O)N[C@@H](C[C@H]1CCNC1=O)C(O)S(=O)(=O)O (stereo partly drawn) [Compound 5c, Sodium (2S)-2-((S)-2-((((6-(tert-butoxycarbonyl)-6-azaspiro[3.4]octan-2-yl)oxy)carbonyl)amino)-4-methylpentanamido)-1-hydroxy-3-((R)-2-oxopyrrolidin-3-yl)propane-1-sulfonate]	> 100000		750 ± 70	750 ± 70	
[2H]C([2H])(OC(=O)N[C@@H](CC(C)C)C(=O)N[C@@H](C[C@H]1CCNC1=O)C(O)S(=O)(=O)[O-])C1CN(C(=O)OC(C)(C)C)C1.[Na+] (stereo partly drawn) [Compound 18c, Sodium (2S)-2-((S)-2-((((1-(tert-butoxycarbonyl)azetidin-3-yl)methoxy-d2)carbonyl)amino)-4-methylpentanamido)-1-hydroxy-3-((R)-2-oxopyrrolidin-3-yl)propane-1-sulfonate]	> 100000		370 ± 60	340 ± 10	
CC(C)C[C@H](NC(=O)OC1CC2(CCN(C(=O)Cc3ccccc3)CC2)C1)C(=O)N[C@@H](C[C@H]1CCNC1=O)C(O)S(=O)(=O)O (stereo partly drawn) [Compound 9c, Sodium (2S)-1-hydroxy-2-((S)-4-methyl-2-((((7-(2-phenylacetyl)-7-azaspiro[3.5]nonan-2-yl)oxy)carbonyl)amino)pentanamido)-3-((R)-2-oxopyrrolidin-3-yl)propane-1-sulfonate]	> 100000		610 ± 130	290 ± 60	
CC(C)C[C@H](NC(=O)OC1CC2(CCN(C(=O)OC(C)(C)C)CC2)C1)C(=O)N[C@@H](C[C@H]1CCNC1=O)C(O)S(=O)(=O)O (stereo partly drawn) [Compound 7c, Sodium (2S)-2-((S)-2-((((7-(tert-butoxycarbonyl)-7-azaspiro[3.5]nonan-2-yl)oxy)carbonyl)amino)-4-methylpentanamido)-1-hydroxy-3-((R)-2-oxopyrrolidin-3-yl)propane-1-sulfonate]	> 100000	2000 to 10000	950 ± 210	290 ± 20	
CC(C)C[C@H](NC(=O)OC1CC2(C1)CN(S(C)(=O)=O)C2)C(=O)N[C@@H](C[C@H]1CCNC1=O)C(O)S(=O)(=O)O (stereo partly drawn) [Compound 4c, Sodium (2S)-1-hydroxy-2-((S)-4-methyl-2-((((2-(methylsulfonyl)-2-azaspiro[3.3]heptan-6-yl)oxy)carbonyl)amino)pentanamido)-3-((R)-2-oxopyrrolidin-3-yl)propane-1-sulfonate]	> 100000		160 ± 10	760 ± 80	
